Entries after “also recorded” stand apart in the source; their conditions may differ.
How the values were obtained:
p21 = test: Western immunoblot of C2C12 lysates, anti-p21; assay type: cell-based, murine; details: differentiation media with Lipofectin, 24 hours
C2C12 cells [1] = test: Flow cytometry (FACS) cell cycle analysis during myogenic differentiation; assay type: cell-based, murine; details: percentage of cells; differentiation media, 0.5 mM oligonucleotide, 24 hours; DNA content by FACS
C2C12 cells [2] = assay type: cell-based, murine
Cdk4 = test: Western immunoblot of C2C12 lysates, anti-Cdk4; assay type: cell-based, murine; details: differentiation media with Lipofectin, 24 hours
Akt [3] = assay type: cell-based, murine
Akt, sequence (P31750 whole entry): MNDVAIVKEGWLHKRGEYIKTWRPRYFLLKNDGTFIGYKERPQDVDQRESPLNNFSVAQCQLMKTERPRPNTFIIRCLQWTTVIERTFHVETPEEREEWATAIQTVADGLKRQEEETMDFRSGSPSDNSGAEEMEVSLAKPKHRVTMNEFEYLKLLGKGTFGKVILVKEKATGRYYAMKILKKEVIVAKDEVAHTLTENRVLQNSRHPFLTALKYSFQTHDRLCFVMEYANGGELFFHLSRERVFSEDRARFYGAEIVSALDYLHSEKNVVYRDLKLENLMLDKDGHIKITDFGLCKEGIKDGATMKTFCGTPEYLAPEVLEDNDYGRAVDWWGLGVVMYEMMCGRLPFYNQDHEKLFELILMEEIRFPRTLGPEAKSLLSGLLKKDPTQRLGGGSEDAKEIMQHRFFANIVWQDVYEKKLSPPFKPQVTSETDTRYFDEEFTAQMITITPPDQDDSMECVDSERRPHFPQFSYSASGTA

[4] = test system: neonatal rat cardiac myocytes; test: Neonatal cardiac myocyte viability, trypan-blue exclusion assay; assay type: cell-based
cardiac myocytes = test: Hoechst 33342 staining for pyknotic nuclei in cardiac myocytes; assay type: cell-based, rat; details: serum-free media with IGF-1
Akt [5] = test: Akt kinase assay (histone H2B) in cardiac myocyte lysates; assay type: cell-based, rat; details: serum-deprived, 50 ng/ml IGF-1, 15 min
cardiomyocytes = test: TUNEL analysis of cultured cardiomyocytes; assay type: cell-based, rat; details: increasing concentrations of IGF-1, mock- and Adeno-β-gal-transfected cells, 48 hours
HUVECs [6] = test: HUVEC cell viability, Trypan-blue exclusion assay; assay type: cell-based, human; details: 100 ng/ml VEGF, serum-free DMEM, 21 hours
HUVECs [7] = test: HUVEC plasmid co-transfection cell-death assay (surviving β-galactosidase-positive cells); assay type: cell-based, human; details: 25 ng/ml VEGF, serum-free 21 hrs, control plasmid
Akt2 = Akt2 kinase assay (histone H2B) in HUVEC lysates; assay type: cell-based, human; details: serum-deprived HUVEC, VEGF 100 ng/ml, 15 min

## 5′-TGTCAGGCTGGTCTGCCTCC-3′ (antisense TGTCAGGCTGGTCTGCCTCC; chemistry not given here) [p21-AS]
p21
  induction of p21: markedly inhibited the induction of p21
C2C12 cells [1]
  Cell cycle phase G0/G1: 38
  Cell cycle phase G2/M: 17
  Cell cycle phase S: 45
C2C12 cells [2]
  cell-death versus control cultures: Markedly enhanced cell-death
Cdk4
  cdk4 expression: no significant effect on cdk4
Akt [3]
  Akt expression: statistically significant reduction in Akt expression

## IGF-1: Insulin-like growth factor-1, purchased from Gibco BRL
[4]; 50 ng/ml IGF-1, serum-depleted
  time cardiac myocyte viability was sustained: more than 48 hours
[4]; serum-free media, up to 72 hours
  cardiac myocyte viability / cytoprotection by IGF-1: dependent on the dose of IGF-1; also recorded: maintained
Cardiac myocytes
  incidence of pyknotic nuclei: suppressed the incidence of pyknotic nuclei
Akt [5]
  Akt activity (phosphorylation of histone H2B): induced the phosphorylation of histone H2B
cardiomyocytes
  frequency of myocyte apoptosis (TUNEL): reduced the frequency of myocyte apoptosis

## VEGF
HUVECs [6]
  cell loss induced by serum-deprivation: completely reversed cell loss induced by serum-deprivation
HUVECs [7]
  increase in number of surviving β-galactosidase positive cells (factor): 3
Akt2
  Akt2 kinase activity: little or no activation of Akt2

## 5′-TGG ATC CGA CAT GTC AGA-3′ (TGGATCCGACATGTCAGA; all phosphorothioate, sugars by position and methylation of C not given here) [Control]
C2C12 cells [1]
  Cell cycle phase G0/G1: 67
  Cell cycle phase G2/M: 8
  Cell cycle phase S: 25

From patent US7368420B1, “Akt compositions for enhancing survival of cells” (Caritas St. Elizabeth's Medical Center of Boston, Inc., priority 1998, dated 2008)
